Laboratory results: US20050214220A1, “Tumor model” (vivoPharm Pty Ltd., priority 2004, published 2005)

System: HC11-NeuT mammary tumors
Experiment: In vivo efficacy in orthotopic HC11-NeuT mammary tumor model
Parameters: species or system Balb/c mice
Details: intravenous, 10 mg/kg body weight
Description: HC11 cells were infected with the pBabe-puro retrovirus as described in Morgenstern and Land (1990) Nucl. Acids Res. 18:3587-3596. Cells were either infected with the pBabe-puro encoding oncogenic NeuT (pBabe-puro NeuT) or control pBabe-puro. In this case, oncogenic activation is by the ErbB2 receptor tyrosine kinase (RTK). The receptor is constitutively activated in a ligand-independent manner due to spontaneous dimerization.
High-titer, helper-free recombinant retroviruses were produced from BOSC-23 cells transiently transfected with plasmid DNA, using the CaPO4 technique, as described in Pear et al. (1993) Proc. Natl. Acad. Sci. 90:8392-8396. HC11 cells were infected by exposure to filtered conditioned medium from 24-48 h transfected BOSC-23 cultures, in the presence of 40 μg/ml polybrene. One day later the medium was replaced with fresh virus-containing medium. Cells were trypsinized, split 1:2 into HC11 growth medium containing 0.75 μg/ml puromycin and selected for 3-4 days. One day before harvesting, the cells were cultured in the absence of puromycin, trypsinized cells were washed, resuspended at 0.5-1.0×10^6 cells/10 μl PBS and implanted in the fat pad as described in below.
All experiments were performed with Balb/c mice. Transplants were performed on 8-10 week-old females. The anesthetized mouse was pinned on a cork board and scrubbed with 70% ethanol. […]

CC(=O)O[C@H]1C(=O)[C@@]2(C)[C@H]([C@H](OC(=O)c3ccccc3)[C@]3(O)C[C@H](OC(=O)[C@H](O)[C@@H](NC(=O)c4ccccc4)c4ccccc4)C(C)=C1C3(C)C)[C@]1(OC(C)=O)CO[C@@H]1C[C@@H]2O [Taxol]
reduction of tumor growth or cell proliferation: no significant reduction
